Values quoted from earlier work in patent US20120108678A1, “BRANCHED COPOLYMERS, COMPOSITIONS AND USES” (UNILEVER PLC, priority 2009, published 2012).

water solubility (water-insoluble monomer examples)	SMILES	Solubility in water w/w at 20° C.
	C=CC(=O)OCCO [2-Hydroxyethyl acrylate]	soluble
	C=C(C)C(=O)OCCO [2-Hydroxyethyl methacrylate]	3.00 w/w
	C=CC(=O)OCC(C)O (centres unmarked) [2-Hydroxypropyl acrylate]	Soluble
	C=C(C)C(=O)O [Methacrylic acid]	Soluble
0.02 % w/w	C=Cc1ccccc1 [styrene]	
